Laboratory results as given in patent US9358238B2, “Method of enhancing the performance of broiler chickens” (Intervet Inc., priority 2012, dated 2016).

Tests used:
Broiler chickens [1] = conditions: 0, 5 and 10 mg/kg, 3 to 6 weeks of age; cited from earlier work
Japanese quails = conditions: 0, 0.2, 0.225, 0.25 mg/kg of live body weight, 21 days, birds at 26 days of age; cited from earlier work
[2] = tested on: broiler chickens (Cobb 500 strain); experiment: 42 day floor pen study, performance response of broiler chickens fed zilpaterol for 7 or 14 days (Example 2); type: in vivo
Source text: “Feed efficiency” refers to: feed consumed (lbs)/total live body weight (lbs). “Adjusted Feed efficiency” refers to feed consumed (lbs)/(total live body weight (lbs)+body weight (lbs) of mortalities).
“Average daily gain” refers to body weight gain (lbs)/number of days.
“Breast weight” refers to breast weight (lbs) at slaughter.
“Carcass yield” refers to carcass weight (lbs)/live body weight (lbs)×100.
“Breast yield” refers to breast weight (lbs)/live body weight (lbs)×100.
Zilpaterol hydrochloride was fed to broiler chickens in a 42 day floor pen study to evaluate the performance response of zilpaterol compared to a non-medicated control group. Six zilpaterol treatment groups consisted of three concentration levels (1, 3, and 5 ppm) and two feeding durations (7 and 14 days) and were administered in feed plus a non medicated control group. A total of 1,680 broiler chickens were allocated by sex to 56 pens with 30 birds/pen, and 4 pens/sex/group (240 birds/group). The 7 day zilpaterol treatments began at day 35 and continued to day 42 of age. The 14 day zilpaterol treatments began at day 28 and continued until day 42 of age.
Post-treatment, there were no statistically significant 2-way or 3-way interactions of sex with duration of treatment and concentration; therefore pooled results over sex are discussed. A summary of the performance response of broiler chickens fed various levels for zilpaterol (0, 1, 3, 5, ppm) and feeding durations (7, 14 days) compared to the control are shown in the following table:
A total of 1,680 broiler chickens (Cobb 500 strain) were allocated by sex to 56 pens (28 pens of males, 28 pens of females) with 30 birds per pen according to a randomized complete block design during a 42 day study. The six zilpaterol treatment groups were in a 2×3 factorial arrangement with two feeding durations of 7 or 14 days (i.e., days 35-42 or 28-42 respectively) and three zilpaterol concentration levels of 1, 3, or 5 ppm plus an un-supplemented (negative) control group. Treatment groups were randomly assigned by sex to pens within each block.

Broiler chickens [3] = experiment: Broiler chickens fed zilpaterol daily at 1 ppm from day 8 to day 56 of age (Example 1); type: in vivo, chicken
Source text: Broiler chickens were fed zilpaterol every day at 1 ppm from day 8 until day 56 of age. The observed zilpaterol performance response was relatively small. In this study, non significant performance increases in Average Daily Gain (ADG) of 1.3-2.6% and Feed Efficiency (FE) of 0.6%-1.9% were reported.

chickens = conditions: skip a day feeding; 0, 0.2, 0.25, 0.3 mg/kg of live body weight, 20 days from 25 days of age; cited from earlier work
Broiler chickens [4] = conditions: 1 ppm for 18 days (28 to 46 days of age); cited from earlier work
[5] = 1 ppm in feed, 7 days (days 35-42)
[6] = 1 ppm in feed, 14 days (days 28-42)
[7] = 3 ppm in feed, 7 days (days 35-42)
[8] = 3 ppm in feed, 14 days (days 28-42)
[9] = 5 ppm in feed, 7 days (days 35-42)
[10] = 5 ppm in feed, 14 days (days 28-42)
[11] = 1 ppm every day, day 8 until day 56 of age, non significant

SMILES: CC(CCc1ccc(O)cc1)NCC(O)c1ccc(O)cc1 (stereo not drawn) [ractopamine]
- daily body weight gain (Broiler chickens [1]): not significantly affected
- feed conversion (Broiler chickens [1]): not significantly affected
- feed intake (Broiler chickens [1]): not significantly affected

SMILES: CC(C)NC1CCn2c(=O)[nH]c3cccc(c32)C1O (stereo not drawn) [Zilpaterol, 4,5,6,7-tetrahydro-7-hydroxy-6-(isopropylamino) imidazo[4,5,1-jk]-[1]benzazepin-2(1H)-one]
- feed conversion ratio (Japanese quails): improved
- weight gain, final body weight, feed intake and carcass, thigh, breast liver and carcass weight (Japanese quails): not a significant difference
- Improvement (%) of Average Daily Gain ([2]; 0 vs 1 ppm, 7 days): 5.4%
- Improvement (%) of Body Weight Day 42 ([2]; 0 vs 1 ppm, 7 days): 2.1%
- Improvement (%) of Breast Weight ([2]; 0 vs 1 ppm, 7 days): 3.8%
- Improvement (%) of Carcass Yield ([2]; 0 vs 1 ppm, 7 days): 4.0%
- Improvement (%) of Feed Efficiency (FE) ([2]; 0 vs 1 ppm, 7 days): 8.0%
- Improvement (%) of Average Daily Gain ([2]; 0 vs 1 ppm, 14 days): 3.3%
- Improvement (%) of Body Weight Day 42 ([2]; 0 vs 1 ppm, 14 days): 3.9%
- Improvement (%) of Breast Weight ([2]; 0 vs 1 ppm, 14 days): 4.2%
- Improvement (%) of Carcass Yield ([2]; 0 vs 1 ppm, 14 days): 1.8%
- Improvement (%) of Feed Efficiency (FE) ([2]; 0 vs 1 ppm, 14 days): 3.3%
- Improvement (%) of Average Daily Gain ([2]; 0 vs 3 ppm, 7 days): 18.5%
- Improvement (%) of Body Weight Day 42 ([2]; 0 vs 3 ppm, 7 days): 3.9%
- Improvement (%) of Breast Weight ([2]; 0 vs 3 ppm, 7 days): 9.1%
- Improvement (%) of Carcass Yield ([2]; 0 vs 3 ppm, 7 days): 1.7%
- Improvement (%) of Feed Efficiency (FE) ([2]; 0 vs 3 ppm, 7 days): 25.9%
- Improvement (%) of Average Daily Gain ([2]; 0 vs 3 ppm, 14 days): 9.2%
- Improvement (%) of Body Weight Day 42 ([2]; 0 vs 3 ppm, 14 days): 5.1%
- Improvement (%) of Breast Weight ([2]; 0 vs 3 ppm, 14 days): 16.1%
- Improvement (%) of Carcass Yield ([2]; 0 vs 3 ppm, 14 days): 2.9%
- Improvement (%) of Feed Efficiency (FE) ([2]; 0 vs 3 ppm, 14 days): 9.7%
- Improvement (%) of Average Daily Gain ([2]; 0 vs 5 ppm, 7 days): 23.8%
- Improvement (%) of Body Weight Day 42 ([2]; 0 vs 5 ppm, 7 days): 4.1%
- Improvement (%) of Breast Weight ([2]; 0 vs 5 ppm, 7 days): 12.6%
- Improvement (%) of Carcass Yield ([2]; 0 vs 5 ppm, 7 days): 3.9%
- Improvement (%) of Feed Efficiency (FE) ([2]; 0 vs 5 ppm, 7 days): 33.7%
- Improvement (%) of Average Daily Gain ([2]; 0 vs 5 ppm, 14 days): 13.7%
- Improvement (%) of Body Weight Day 42 ([2]; 0 vs 5 ppm, 14 days): 8.0%
- Improvement (%) of Breast Weight ([2]; 0 vs 5 ppm, 14 days): 12.6%
- Improvement (%) of Carcass Yield ([2]; 0 vs 5 ppm, 14 days): 2.8%
- Improvement (%) of Feed Efficiency (FE) ([2]; 0 vs 5 ppm, 14 days): 9.9%
- Body Weight Day 42 [2, 5]: 4.816 lb
- Breast Weight [2, 5]: 1.133 lb
- Breast Yield [2, 5]: 23.91%
- Carcass Yield [2, 5]: 81.45%
- Feed Efficiency (FE) (Feed/Gain Ratio) [2, 5]: 3.831
- Body Weight Day 42 [2, 6]: 4.898 lb
- Breast Weight [2, 6]: 1.138 lb
- Breast Yield [2, 6]: 24.27%
- Carcass Yield [2, 6]: 79.79%
- Feed Efficiency (FE) (Feed/Gain Ratio) [2, 6]: 2.632
- Body Weight Day 42 [2, 7]: 4.902 lb
- Breast Weight [2, 7]: 1.191 lb
- Breast Yield [2, 7]: 23.82%
- Carcass Yield [2, 7]: 79.71%
- Feed Efficiency (FE) (Feed/Gain Ratio) [2, 7]: 3.085
- Body Weight Day 42 [2, 8]: 4.956 lb
- Breast Weight [2, 8]: 1.268 lb
- Breast Yield [2, 8]: 25.11%
- Carcass Yield [2, 8]: 80.62%
- Feed Efficiency (FE) (Feed/Gain Ratio) [2, 8]: 2.301
- Body Weight Day 42 [2, 9]: 4.910 lb
- Breast Weight [2, 9]: 1.230 lb
- Breast Yield [2, 9]: 26.12%
- Carcass Yield [2, 9]: 81.41%
- Feed Efficiency (FE) (Feed/Gain Ratio) [2, 9]: 2.760
- Body Weight Day 42 [2, 10]: 5.093 lb
- Breast Weight [2, 10]: 1.230 lb
- Breast Yield [2, 10]: 24.20%
- Carcass Yield [2, 10]: 80.51%
- Feed Efficiency (FE) (Feed/Gain Ratio) [2, 10]: 2.295
- body weight increase versus controls ([2]; 5 ppm, 14 days (Z5-14d) versus Z0-0d, day 42): 0.38 lb
- reduction of time to reach the target market weight ([2]; 5 ppm, 14 days, 0.38 lb/0.174 lb/day): approximately 2 days
- effect on mean mortality rates compared to the control group ([2]; any level (1, 3, 5 ppm), either feeding duration (7 or 14 day)): no significant effect
- breast yield, average of the zilpaterol treatment groups ([2]; average over 1, 3, 5 ppm and 7, 14 days, control 25.46%): 24.57%
- carcass yield improvement compared to control (Broiler chickens [3]; 1 ppm daily for 7 weeks, P<0.01): 2%
- performance increase in Average Daily Gain (ADG) (Broiler chickens [3]; [11]): 1.3-2.6%
- performance increase in Feed Efficiency (FE) (Broiler chickens [3]; [11]): 0.6%-1.9
- feed efficiency (chickens): improved

SMILES: CC(C)(C)NCC(O)c1cc(Cl)c(N)c(Cl)c1 (stereo not drawn) [Clenbuterol]
- improvement in average daily gain (ADG) above controls (Broiler chickens [4]): 3.3%
- improvement in feed efficiency (FE) above controls (Broiler chickens [4]): 3.0%
